The record followed here is US20260347351A1, “INHIBITORS OF PDE11A4 AND METHODS OF USING SAME” (UNIVERSITY OF MARYLAND, BALTIMORE, priority 2022, published 2026).

In brackets after ≈: the same amount, converted by molar mass. Bounds are passed on as bounds.

The target in one series is mPDE11A4 (Mus musculus, UniProt P0C1Q2). The experiment in a line: Reversal of aging-like punctate accumulations of EmGFP-mPDE11A4 in HT-22 hippocampal cells. The format is cell-based. The settings on record: HT-22 cells overexpressing EmGFP-mPDE11A4. The protocol: In vivo, expression of PDE11A4 increases in the hippocampus across the lifespan in humans and rodents, resulting in age-related punctate accumulations of PDE11A4 protein in “ghost axons.” These age-related PDE11A4 accumulations were mimicked by overexpressing mouse PDE11A4 in mouse HT-22 hippocampal cells. FIGS. 31A-31B is an image of HT-22 cells overexpressing EmGFP-mPDE11A4 treated with the vehicle DMSO (FIG. 30A) or 1 uM 25b (FIG. 30B).
See FIGS. 35A and 35B, which show images of HT-22 cells overexpressing EmGFP-mPDE11A4 treated with the vehicle DMSO (35A) or 1 uM 25b (35B).

The target in a further series is T1, PDE11A4 (Homo sapiens, UniProt Q9HCR9).
T1 construct: purchased BPS Bioscience
The experiment in a line: In vitro PDE11A4 enzyme inhibition assay (Ba(OH)2 precipitation method). The format is biochemical. The settings on record: for IC50: in vitro. The protocol: In vitro enzyme assays are conducted via the Ba(OH)2 precipitation method of Wang et al. using commercially-available recombinant PDEs representing all 11 PDE families. Assays for PDE11A inhibition are carried out with both 200 nM cAMP and 100 nM cGMP. Substrate concentrations for the remaining PDEs are 100 nM cGMP (PDE1C), 1 μM cGMP (PDE2A), 30 nM cGMP (PDE3B), 120 nM cAMP (PDE4D), 500 nM cGMP (PDE5A), […] (PDE6C), 15 nM cAMP (PDE7A), 10 nM cAMP (PDE8A), 70 nM cGMP (PDE9A), and 30 nM cAMP (PDE10A).
These compounds were profiled further using additional commercially available analogs and by in vitro ADME characteristics. The synthesis of these analogs is illustrated in the schemes of FIGS. 24-26. […] In the rightmost column of FIG. 27B, percent (%) values refer to percent inhibition, and non-percent values refer to IC50 values.
In vitro enzyme assays were conducted via the Ba(OH)2 precipitation method of Wang et al. using recombinant human PDE3A, PDE4D3, PDE5A, PDE6C, PDE10A1, and PDE11A4 (BPS Bioscience)). Substrate concentrations used were 15 nM cGMP (PDE3A), 18 nM cAMP (PDE3A) 200 nM cAMP (PDE4D3), 500 nM cGMP (PDE5A), 1.7 μM cGMP (PDE6C), 30 nM cAMP (PDE10A), […] (PDE10A), 100 nM cGMP (PDE11A4) and 240 nM cAMP (PDE11A4). […] Inhibitor concentrations of 4, 13.7, 40, 123, 370, 1110, 3330 and 10,000 nM were used. The values reported are means of at least three independent experiments. Substrate concentrations were ~0.1×KM for each enzyme; thus, IC50 values approximate the Ki values.

A short description of series [1]: Kinetic aqueous solubility, pH 7.4. The format is physicochemical. Particulars: aqueous buffer, PBS, Example 4 Table 1. The protocol: The mixture is agitated at 25° C. for 1 hour, filtered and evaluated by UV and/or LCMSMS analysis. Data are reported as mg/mL and μM concentration.
Series [2] is described as follows: Metabolic stability in mouse liver microsomes. The format is in vitro ADME. On the procedure:
(§1) Metabolic stability: Samples at 37° C. in the presence of human or mouse liver microsomes and NADPH according to standard methods. Aliquots are removed at 5 time points, quenched and analyzed (LCMS/MS and MS/MS as needed) for remaining test compound, along with a positive control. Microsomal protein content is adjusted to give consistent results. Data are reported as half-life and clearance. Assay acceptance criteria is 20% for all standards and 25% for the LLOQ.
(In general: Microsomes from liver hold many membrane-bound enzymes, among them those of drug oxidation.)

Series [3] is described as follows: Metabolic stability in human liver microsomes. The format is in vitro ADME. On the procedure:
as §1

The target in a further series is CYP3A4 (Homo sapiens, UniProt P08684). The experiment in a line: CYP3A4 inhibition (testosterone substrate). The format is in vitro ADME. Particulars: Example 4 Table 1. On the procedure: (§2) CYP inhibition: Compounds are assessed for their ability to inhibit the three major human cytochrome P450 enzymes, 3A4, 2D6 and 2C9. Expressed enzymes are used to minimize non-specific binding and membrane partitioning issues. The 3A4 assay uses testosterone as a substrate and is analyzed by LC/MS/MS on a Waters TQ instrument using positive or negative electrospray ionization. The 2D6 and 2C9 assays use fluorescent substrates and are analyzed on an Envision Plate Reader.

The target in another series is CYP2D6 (Homo sapiens, UniProt P10635). The series can be described thus: CYP2D6 inhibition (fluorescent substrate). The format is in vitro ADME. Particulars: Example 4 Table 1. On the procedure:
as §2

Another series deals with CYP2C9 (Homo sapiens, UniProt P11712). The experiment in a line: CYP2C9 inhibition (fluorescent substrate). The settings on record: Example 4 Table 1. The format is in vitro ADME. On the procedure: as §2
The next series relates to MDCK cell monolayers. The experiment in a line: MDCK / MDCK-MDR1 permeability and efflux. The format is in vitro ADME. Particulars: Example 4 Table 1. The protocol:
MDCK permeability: MDCK cell monolayers (Absorption Systems, Malvern, PA) are grown to confluence on collagen-coated microporous membranes in 12-well assay plates. Assay buffer consists of Hanks' balanced salt solution containing 10 mM HEPES and 15 mM glucose at pH—7.4. The buffer in the receiver chamber also contains 1% bovine serum albumin. Compounds are tested at a final concentration of 5 μM in the assay buffer. Cell monolayers are dosed on the apical side (A-B) or basolateral side (B-A) and incubated at 37° C. with 5% CO2 in a humidified incubator. Samples are taken from the donor and receiver chambers at 120 minutes. Each determination is performed in duplicate. The flux of Lucifer yellow is also measured post-experimentally for each monolayer to ensure no damage is inflicted to the monolayer during flux period. Samples are assayed on a Waters TQ LC/MS/MS using positive or negative electrospray ionization.

T1 sequence (Q9HCR9 whole entry): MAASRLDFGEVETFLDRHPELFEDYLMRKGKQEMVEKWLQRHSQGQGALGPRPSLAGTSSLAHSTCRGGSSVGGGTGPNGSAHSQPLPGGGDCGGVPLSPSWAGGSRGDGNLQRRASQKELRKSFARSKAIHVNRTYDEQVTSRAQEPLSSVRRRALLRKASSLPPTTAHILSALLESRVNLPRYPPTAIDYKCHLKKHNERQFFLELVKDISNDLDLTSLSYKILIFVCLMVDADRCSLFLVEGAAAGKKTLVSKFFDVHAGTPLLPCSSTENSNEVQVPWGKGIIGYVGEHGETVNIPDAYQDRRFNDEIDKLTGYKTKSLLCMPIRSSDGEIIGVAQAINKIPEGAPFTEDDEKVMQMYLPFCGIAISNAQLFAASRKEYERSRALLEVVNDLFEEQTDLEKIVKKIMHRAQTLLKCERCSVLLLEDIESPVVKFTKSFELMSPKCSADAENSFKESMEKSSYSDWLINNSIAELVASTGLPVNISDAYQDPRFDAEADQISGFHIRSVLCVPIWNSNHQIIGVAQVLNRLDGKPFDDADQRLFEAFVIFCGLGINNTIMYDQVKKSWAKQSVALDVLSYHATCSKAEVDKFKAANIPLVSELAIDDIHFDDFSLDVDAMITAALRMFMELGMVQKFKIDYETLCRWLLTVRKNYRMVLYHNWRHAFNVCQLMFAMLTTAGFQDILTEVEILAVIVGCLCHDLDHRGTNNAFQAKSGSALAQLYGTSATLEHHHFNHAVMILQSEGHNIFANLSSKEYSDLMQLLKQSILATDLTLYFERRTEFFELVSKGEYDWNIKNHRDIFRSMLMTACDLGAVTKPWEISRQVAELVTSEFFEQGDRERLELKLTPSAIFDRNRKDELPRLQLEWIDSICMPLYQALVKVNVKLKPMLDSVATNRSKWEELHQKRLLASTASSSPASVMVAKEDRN
mPDE11A4, sequence (P0C1Q2 whole entry): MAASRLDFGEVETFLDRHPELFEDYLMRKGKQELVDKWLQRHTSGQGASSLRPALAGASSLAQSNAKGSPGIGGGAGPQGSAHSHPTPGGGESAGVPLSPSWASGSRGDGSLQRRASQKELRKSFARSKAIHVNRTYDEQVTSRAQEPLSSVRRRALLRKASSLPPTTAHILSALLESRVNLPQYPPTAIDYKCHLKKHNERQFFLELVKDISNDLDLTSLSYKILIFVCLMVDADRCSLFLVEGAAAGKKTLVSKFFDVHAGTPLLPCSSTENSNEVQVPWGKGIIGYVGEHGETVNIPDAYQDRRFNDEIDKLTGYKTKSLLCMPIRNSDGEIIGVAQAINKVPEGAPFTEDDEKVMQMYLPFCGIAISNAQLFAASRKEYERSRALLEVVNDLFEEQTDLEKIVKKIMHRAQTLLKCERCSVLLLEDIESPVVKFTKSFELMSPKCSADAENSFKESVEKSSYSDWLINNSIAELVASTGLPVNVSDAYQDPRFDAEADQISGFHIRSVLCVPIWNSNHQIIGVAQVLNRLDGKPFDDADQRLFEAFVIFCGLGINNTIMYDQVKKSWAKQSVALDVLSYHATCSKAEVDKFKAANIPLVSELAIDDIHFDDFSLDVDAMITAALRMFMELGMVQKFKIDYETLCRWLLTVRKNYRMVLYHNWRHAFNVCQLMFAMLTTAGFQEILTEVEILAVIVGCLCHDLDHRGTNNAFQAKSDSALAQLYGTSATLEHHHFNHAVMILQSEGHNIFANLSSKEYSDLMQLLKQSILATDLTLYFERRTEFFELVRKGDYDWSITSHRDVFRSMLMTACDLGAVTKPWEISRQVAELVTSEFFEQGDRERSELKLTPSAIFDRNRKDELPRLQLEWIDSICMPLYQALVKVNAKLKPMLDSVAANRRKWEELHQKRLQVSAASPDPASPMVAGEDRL
CYP2C9, sequence (P11712 whole entry): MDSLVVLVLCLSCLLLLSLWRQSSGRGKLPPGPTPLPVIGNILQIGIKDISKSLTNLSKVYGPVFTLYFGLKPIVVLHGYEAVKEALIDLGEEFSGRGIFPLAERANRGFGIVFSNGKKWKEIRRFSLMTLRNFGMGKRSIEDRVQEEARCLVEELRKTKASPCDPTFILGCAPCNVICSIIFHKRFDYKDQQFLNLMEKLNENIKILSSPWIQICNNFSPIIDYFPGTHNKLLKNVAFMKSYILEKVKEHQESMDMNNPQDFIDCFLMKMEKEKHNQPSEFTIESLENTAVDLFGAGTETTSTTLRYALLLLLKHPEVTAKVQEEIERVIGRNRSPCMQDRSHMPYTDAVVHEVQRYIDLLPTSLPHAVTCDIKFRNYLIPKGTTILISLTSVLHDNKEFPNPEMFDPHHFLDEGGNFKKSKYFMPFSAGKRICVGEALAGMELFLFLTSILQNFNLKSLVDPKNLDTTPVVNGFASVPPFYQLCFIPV
CYP3A4, sequence (P08684 whole entry): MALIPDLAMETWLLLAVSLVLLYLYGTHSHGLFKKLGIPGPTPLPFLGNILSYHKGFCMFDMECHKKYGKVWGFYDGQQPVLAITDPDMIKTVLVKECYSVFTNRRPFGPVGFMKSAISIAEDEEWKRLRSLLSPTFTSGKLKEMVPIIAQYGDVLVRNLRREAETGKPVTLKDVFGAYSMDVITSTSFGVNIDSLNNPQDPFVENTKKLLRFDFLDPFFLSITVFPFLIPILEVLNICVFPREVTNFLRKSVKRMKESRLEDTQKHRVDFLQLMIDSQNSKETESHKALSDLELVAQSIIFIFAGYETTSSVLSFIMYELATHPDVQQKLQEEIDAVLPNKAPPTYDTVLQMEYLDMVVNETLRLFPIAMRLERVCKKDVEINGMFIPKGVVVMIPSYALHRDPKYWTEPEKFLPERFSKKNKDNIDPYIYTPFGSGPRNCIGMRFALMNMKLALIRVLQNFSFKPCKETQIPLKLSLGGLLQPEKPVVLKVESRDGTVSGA
CYP2D6, sequence (P10635 whole entry): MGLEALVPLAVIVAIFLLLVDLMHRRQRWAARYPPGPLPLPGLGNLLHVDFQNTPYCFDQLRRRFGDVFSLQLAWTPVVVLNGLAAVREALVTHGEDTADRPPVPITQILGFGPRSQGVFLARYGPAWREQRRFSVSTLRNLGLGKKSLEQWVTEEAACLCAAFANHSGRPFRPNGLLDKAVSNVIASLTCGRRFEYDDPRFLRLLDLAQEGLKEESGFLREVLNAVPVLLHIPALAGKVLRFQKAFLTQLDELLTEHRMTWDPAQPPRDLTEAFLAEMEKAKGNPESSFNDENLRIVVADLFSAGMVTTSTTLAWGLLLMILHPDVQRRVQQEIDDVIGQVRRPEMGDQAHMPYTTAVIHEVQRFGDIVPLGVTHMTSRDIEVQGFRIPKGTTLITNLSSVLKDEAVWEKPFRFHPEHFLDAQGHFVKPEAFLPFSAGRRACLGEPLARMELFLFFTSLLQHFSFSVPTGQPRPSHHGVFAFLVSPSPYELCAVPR

As for `CN1CC(=O)N2[C@H](c3ccc4c(c3)OCO4)c3[nH]c4ccccc4c3C[C@@H]2C1=O` [Tadalafil, tadalafil], the “reversal of aging-like accumulations of mPDE11A4” value on mPDE11A4 is reported as “able to reverse these aging-like accumulations of mPDE11A4”.
For `CCn1nccc1-c1cc(-c2nnc(C)o2)c2cnn(-c3ccccc3)c2n1` [Compound 1007], the IC50 against PDE11A4 was 70 nM.
`CCn1nccc1-c1cc(-c2ncc(C)o2)c2cnn(-c3ccccc3)c2n1` [Compound 1003]: it took 140 nM to reach half-maximal inhibition against PDE11A4 (IC50). This IC50 is about 2-fold higher than that of the compound before.
The compound `CCN(CC)C(=O)c1cc(-c2cccs2)nc2c1c(C)nn2-c1ccccc1` [Compound 3001] returned a solubility in series [1] of 54 µM (≈ 21.1 µg/mL). The microsomal CLint is greater than 690 µL/min/mg in series [2] (Example 4 Table 1, read-out: Mouse Liver Microsome Clint) and greater than 690 µL/min/mg in series [3] (Example 4 Table 1, read-out: Human Liver Microsome Clint). Also, the half-life was less than 2 min in [2] (Example 4 Table 1, read-out: Mouse Liver Microsome Stability t½) and less than 2 min in [3] (Example 4 Table 1, read-out: Human Liver Microsome Stability t½). Besides, the IC50 against CYP3A4 was 3000 nM; against CYP2D6 it was greater than 10000 nM; on CYP2C9, 4900 nM. Also, in the series on MDCK cell monolayers, the “MDCK1 A:B” value is listed as 0.78.
Regarding `CCCSc1nc2c(c(=O)n1-c1ccccc1)SCC2` [BC11-38], the “reversal of aging-like accumulations of mPDE11A4” value at mPDE11A4 was “able to reverse these aging-like accumulations of mPDE11A4”.
`CCn1nccc1-c1cc(-c2nnc(C)s2)c2cnn(-c3ccccc3)c2n1` [Compound 1005] returned a half-inhibitory concentration (IC50) at PDE11A4 of 170 nM.
At PDE11A4 (@500 nM), `CCn1nccc1-c1cc(-c2ncc(C)s2)c2cnn(-c3ccccc3)c2n1` [Compound 1001] returned an inhibition at 0.5 µM of 62%.

As a reminder, the IC50 is the midpoint of a concentration-inhibition curve. A lower IC50 goes with inhibition by little substance. Usually solubility stands for the dissolved amount per volume that the medium holds. The low end stands for little dissolved substance, the high end for much dissolved substance. In general, inhibition refers to the share of the control response that was lost under treatment.
